# Values joined by “and” are separate entries in the source; they are usually repeats but may differ in a detail not shown here. Equal entries are not always repeated.
# Test system: PANC-1 complex spheroid growth, percent test/control
# Test: Anticancer human tumor PANC-1 cell line growth inhibition [Asc];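 also: spheroids exposed to agents for 7 days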;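 as to viability, T/C: percent viability relative to DMSO vehicle wells taken as 100%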
# Details: for viability, T/C: stronger effect = lower value
# In short: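 Concentration series start at each agent's clinical Cmax, or at 10 microM when none is established, and drop in half-log steps; agents are applied alone or together to complex spheroids built with HUVEC and hMSC.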
structure (smiles),measurement,setting,value
CCN1CCN(Cc2ccc(Nc3ncc(F)c(-c4cc(F)c5nc(C)n(C(C)C)c5c4)n3)nc2)CC1 + CCN1C(C(=O)NC23CCC(C(=O)O)(CC2)CC3)C(c2cccc(Cl)c2F)C2(C(=O)Nc3cc(Cl)ccc32)C12CCCCC2,IC50,"curve of first compound, second compound 0.00949 µM",> 1 µM
same,IC50,"curve of first compound, second compound 0.03 µM",> 1 µM
same,IC50,"curve of first compound, second compound 0.0949 µM",> 1 µM
same,IC50,"curve of first compound, second compound 0.3 µM",> 1 µM
same,IC50,"curve of first compound, second compound 0.949 µM",> 1 µM
same,IC50,"curve of first compound, second compound 3 µM",> 1 µM
same,"viability, T/C","second compound 0.00949 µM, first compound 0.00316 µM",112%
same,"viability, T/C","second compound 0.00949 µM, first compound 0.01 µM",102%
same,"viability, T/C","second compound 0.00949 µM, first compound 0.0316 µM",109%
same,"viability, T/C","second compound 0.00949 µM, first compound 0.1 µM",117%
same,"viability, T/C","second compound 0.00949 µM, first compound 0.316 µM",126%
same,"viability, T/C","second compound 0.00949 µM, first compound 1 µM",139%
same,"viability, T/C","second compound 0.03 µM, first compound 0.00316 µM",105%
same,"viability, T/C","second compound 0.03 µM, first compound 0.01 µM",97.8%
same,"viability, T/C","second compound 0.03 µM, first compound 0.0316 µM",114%
same,"viability, T/C","second compound 0.03 µM, first compound 0.1 µM",114%
same,"viability, T/C","second compound 0.03 µM, first compound 0.316 µM",131%
same,"viability, T/C","second compound 0.03 µM, first compound 1 µM",141%
same,"viability, T/C","second compound 0.0949 µM, first compound 0.00316 µM",108%
same,"viability, T/C","second compound 0.0949 µM, first compound 0.01 µM",108%
same,"viability, T/C","second compound 0.0949 µM, first compound 0.0316 µM",105%
same,"viability, T/C","second compound 0.0949 µM, first compound 0.1 µM",105%
same,"viability, T/C","second compound 0.0949 µM, first compound 0.316 µM",125%
same,"viability, T/C","second compound 0.0949 µM, first compound 1 µM",140%
same,"viability, T/C","second compound 0.3 µM, first compound 0.00316 µM",99.8%
same,"viability, T/C","second compound 0.3 µM, first compound 0.01 µM",131%
same,"viability, T/C","second compound 0.3 µM, first compound 0.0316 µM",110%
same,"viability, T/C","second compound 0.3 µM, first compound 0.1 µM",117%
same,"viability, T/C","second compound 0.3 µM, first compound 0.316 µM",124%
same,"viability, T/C","second compound 0.3 µM, first compound 1 µM",150%
same,"viability, T/C","second compound 0.949 µM, first compound 0.00316 µM",102%
same,"viability, T/C","second compound 0.949 µM, first compound 0.01 µM",119%
same,"viability, T/C","second compound 0.949 µM, first compound 0.0316 µM",121%
same,"viability, T/C","second compound 0.949 µM, first compound 0.1 µM",111%
same,"viability, T/C","second compound 0.949 µM, first compound 0.316 µM",128%
same,"viability, T/C","second compound 0.949 µM, first compound 1 µM",140%
same,"viability, T/C","second compound 3 µM, first compound 0.00316 µM",116%
same,"viability, T/C","second compound 3 µM, first compound 0.01 µM",125%
same,"viability, T/C","second compound 3 µM, first compound 0.0316 µM",118%
same,"viability, T/C","second compound 3 µM, first compound 0.1 µM",124%
same,"viability, T/C","second compound 3 µM, first compound 0.316 µM",131%
same,"viability, T/C","second compound 3 µM, first compound 1 µM",157%
C#Cc1c(F)ccc2cc(O)cc(-c3ncc4c(N5CC6CCC(C5)N6)nc(OCC56CCCN5CC(F)C6)nc4c3F)c12 (centres undefined),"viability, T/C",compound 0.0316 µM,105% and 87.8% and 92.5%
same,"viability, T/C",compound 0.1 µM,80% and 75.7% and 88.9%
same,"viability, T/C",compound 0.316 µM,93.9% and 85.8% and 83.5%
same,"viability, T/C",compound 1 µM,79.9% and 80.1% and 84%
same,"viability, T/C",compound 3.16 µM,86.8% and 83.7% and 86.3%
same,"viability, T/C",compound 10 µM,85.4% and 84.5% and 92.1%
same,IC50,curve of compound,> 10 µM

# Reference: PubChem BioAssay AID1963435 (Molecular Pharmacology Branch, DTP, NCI, 2024)
